Measurements from ChEMBL document CHEMBL1142295, “A potential new prodrug for the treatment of cystinosis: design, synthesis and in-vitro evaluation” (Bioorg Med Chem Lett, 2008).
Calls of active or inactive are those of the source. The rule behind the calls is not given here.

Assay: Depletion of lysosomal cystine in cystinotic fibroblasts GM00008 at 50 uM after 72 hrs
Format: functional, cell-based
Conditions: Fibroblast

| SMILES | Activity |
| --- | --- |
| NCCS | Active |
| CCCCCCCCCC(=O)NCCSSCCNC(=O)CCCCCCCCC | Active |
